Source: ChEMBL document CHEMBL5465560, “Selectivity Literature for EUbOPEN Chemogenomic Library” (2024)

Assays:
[1] = molecular target: T1, Testis-specific serine/threonine-protein kinase 1 (Homo sapiens) (UniProt Q9BXA7); test: Selectivity interaction (KinomeScan (DiscoverX)) EUB0001049a TSSK1B; conditions: at 1 µM
T1 sequence (whole entry): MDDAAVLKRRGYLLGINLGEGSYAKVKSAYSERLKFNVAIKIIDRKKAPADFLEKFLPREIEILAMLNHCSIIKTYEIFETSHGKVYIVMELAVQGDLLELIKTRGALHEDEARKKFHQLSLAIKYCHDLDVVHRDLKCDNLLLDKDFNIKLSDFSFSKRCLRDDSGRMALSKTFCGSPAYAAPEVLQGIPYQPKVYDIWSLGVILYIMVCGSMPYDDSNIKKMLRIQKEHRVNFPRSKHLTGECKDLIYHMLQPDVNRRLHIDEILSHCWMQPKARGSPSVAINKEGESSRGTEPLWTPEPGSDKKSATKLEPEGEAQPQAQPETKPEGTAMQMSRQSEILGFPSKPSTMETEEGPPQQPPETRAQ

[2] = molecular target: Ribosomal protein S6 kinase alpha-3 (Homo sapiens, UniProt P51812); test: Selectivity interaction (KinomeScan (DiscoverX)) EUB0000666a RPS6KA3; conditions: at 10 µM
[3] = molecular target: T2, 3-phosphoinositide-dependent protein kinase 1 (Homo sapiens) (UniProt O15530); test: Selectivity interaction (KinomeScan (DiscoverX)) EUB0000666a PDPK1; conditions: at 10 µM
T2 sequence (whole entry): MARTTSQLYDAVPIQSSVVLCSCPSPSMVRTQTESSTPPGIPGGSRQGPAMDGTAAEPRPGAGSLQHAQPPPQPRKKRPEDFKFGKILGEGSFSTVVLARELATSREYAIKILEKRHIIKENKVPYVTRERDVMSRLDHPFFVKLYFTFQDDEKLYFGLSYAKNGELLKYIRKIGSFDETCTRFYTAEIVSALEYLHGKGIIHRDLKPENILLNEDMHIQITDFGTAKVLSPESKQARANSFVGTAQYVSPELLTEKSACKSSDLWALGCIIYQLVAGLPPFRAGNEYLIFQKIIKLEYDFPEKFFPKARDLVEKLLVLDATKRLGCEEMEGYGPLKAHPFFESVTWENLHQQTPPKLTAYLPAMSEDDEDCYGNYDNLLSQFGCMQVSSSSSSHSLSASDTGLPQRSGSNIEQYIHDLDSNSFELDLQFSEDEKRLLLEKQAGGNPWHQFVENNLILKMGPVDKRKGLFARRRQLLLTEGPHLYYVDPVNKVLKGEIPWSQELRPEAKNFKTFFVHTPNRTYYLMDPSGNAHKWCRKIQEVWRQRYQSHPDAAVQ

[4] = molecular target: Serine/threonine-protein kinase 35 (Homo sapiens) (UniProt Q8TDR2); test: Selectivity interaction (KinomeScan (DiscoverX)) EUB0000229b STK35; conditions: at 10 µM
[5] = molecular target: T3, Uncharacterized serine/threonine-protein kinase SBK3 (Homo sapiens) (UniProt P0C264); test: Selectivity interaction (KinomeScan (DiscoverX)) EUB0001079a SBK3; conditions: at 1 µM
T3 sequence (whole entry): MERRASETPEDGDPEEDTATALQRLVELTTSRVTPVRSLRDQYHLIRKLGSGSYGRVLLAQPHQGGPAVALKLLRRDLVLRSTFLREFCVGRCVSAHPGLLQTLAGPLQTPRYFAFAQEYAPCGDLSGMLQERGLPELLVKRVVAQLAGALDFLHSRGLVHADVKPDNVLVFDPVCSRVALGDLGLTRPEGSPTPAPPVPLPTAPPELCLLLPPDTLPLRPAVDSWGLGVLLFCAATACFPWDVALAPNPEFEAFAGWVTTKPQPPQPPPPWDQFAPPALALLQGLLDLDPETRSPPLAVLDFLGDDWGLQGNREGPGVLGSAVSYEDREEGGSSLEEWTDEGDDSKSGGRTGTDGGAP

[6] = molecular target: Bone morphogenetic protein receptor type-1A (Homo sapiens, UniProt P36894); test: Selectivity interaction (Ambit KINOMEscan and KiNATiv profiling in Jurkat cells) EUB0000090b BMPR1A; format: cell-based; conditions: at 1 µM
[7] = molecular target: Epithelial discoidin domain-containing receptor 1 (Homo sapiens) (UniProt Q08345); conditions: at 10 µM
[8] = molecular target: Tyrosine-protein kinase CSK (Homo sapiens) (UniProt P41240); test: Selectivity interaction (KinomeScan (DiscoverX)) EUB0001619a CSK; conditions: at 1 µM
[9] = molecular target: Mitogen-activated protein kinase 9 (Homo sapiens, UniProt P45984); test: Selectivity interaction (KinomeScan (DiscoverX)) EUB0001619a MAPK9; conditions: at 1 µM
[10] = molecular target: Serine/threonine-protein kinase 38-like (Homo sapiens) (UniProt Q9Y2H1); test: Selectivity interaction (KinomeScan (DiscoverX)) EUB0000607a STK38L; conditions: at 10 µM
[11] = test system: Phosphatidylinositol 4,5-bisphosphate 3-kinase catalytic subunit alpha isoform (Homo sapiens), P42336 [H1047Y]; conditions: at 10 µM
[12] = molecular target: T4, Serine/threonine-protein kinase NLK (Homo sapiens) (UniProt Q9UBE8); test: Selectivity interaction (LanthaScreen Eu Kinase Binding Assay) EUB0001632a NLK; conditions: at 10 µM
T4 sequence (whole entry): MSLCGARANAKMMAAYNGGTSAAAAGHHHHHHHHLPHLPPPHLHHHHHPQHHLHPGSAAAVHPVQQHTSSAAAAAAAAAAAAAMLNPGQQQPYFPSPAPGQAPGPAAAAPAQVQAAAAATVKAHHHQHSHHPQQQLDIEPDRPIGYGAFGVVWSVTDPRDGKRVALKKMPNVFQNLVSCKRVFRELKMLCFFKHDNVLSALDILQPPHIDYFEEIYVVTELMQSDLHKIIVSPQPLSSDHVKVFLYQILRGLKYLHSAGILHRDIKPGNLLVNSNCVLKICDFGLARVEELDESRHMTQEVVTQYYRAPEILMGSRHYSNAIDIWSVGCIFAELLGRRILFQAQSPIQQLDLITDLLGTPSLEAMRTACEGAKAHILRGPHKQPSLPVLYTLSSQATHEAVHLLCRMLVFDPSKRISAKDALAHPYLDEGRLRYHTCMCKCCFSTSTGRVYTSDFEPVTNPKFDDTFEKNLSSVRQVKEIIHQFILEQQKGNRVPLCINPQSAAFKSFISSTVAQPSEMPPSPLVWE

[13] = molecular target: Phosphorylase b kinase gamma catalytic chain, skeletal muscle/heart isoform (Homo sapiens) (UniProt Q16816); test: Selectivity interaction (ProQinase) EUB0000171b PHKG1
Phosphorylase b kinase gamma catalytic chain, skeletal muscle/heart isoform (Homo sapiens), sequence (Q16816 whole entry, looked up, canonical isoform): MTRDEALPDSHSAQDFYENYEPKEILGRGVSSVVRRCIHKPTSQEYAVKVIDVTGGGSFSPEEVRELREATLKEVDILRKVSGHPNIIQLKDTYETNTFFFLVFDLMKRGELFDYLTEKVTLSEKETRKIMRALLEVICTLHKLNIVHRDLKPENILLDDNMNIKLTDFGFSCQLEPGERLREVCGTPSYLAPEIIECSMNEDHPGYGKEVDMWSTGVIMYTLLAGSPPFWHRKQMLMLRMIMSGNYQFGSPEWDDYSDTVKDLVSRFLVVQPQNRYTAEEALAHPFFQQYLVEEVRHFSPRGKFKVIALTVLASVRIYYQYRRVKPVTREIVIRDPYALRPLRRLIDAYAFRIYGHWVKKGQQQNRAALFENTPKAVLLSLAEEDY

Ribosomal protein S6 kinase alpha-3, sequence (P51812 whole entry): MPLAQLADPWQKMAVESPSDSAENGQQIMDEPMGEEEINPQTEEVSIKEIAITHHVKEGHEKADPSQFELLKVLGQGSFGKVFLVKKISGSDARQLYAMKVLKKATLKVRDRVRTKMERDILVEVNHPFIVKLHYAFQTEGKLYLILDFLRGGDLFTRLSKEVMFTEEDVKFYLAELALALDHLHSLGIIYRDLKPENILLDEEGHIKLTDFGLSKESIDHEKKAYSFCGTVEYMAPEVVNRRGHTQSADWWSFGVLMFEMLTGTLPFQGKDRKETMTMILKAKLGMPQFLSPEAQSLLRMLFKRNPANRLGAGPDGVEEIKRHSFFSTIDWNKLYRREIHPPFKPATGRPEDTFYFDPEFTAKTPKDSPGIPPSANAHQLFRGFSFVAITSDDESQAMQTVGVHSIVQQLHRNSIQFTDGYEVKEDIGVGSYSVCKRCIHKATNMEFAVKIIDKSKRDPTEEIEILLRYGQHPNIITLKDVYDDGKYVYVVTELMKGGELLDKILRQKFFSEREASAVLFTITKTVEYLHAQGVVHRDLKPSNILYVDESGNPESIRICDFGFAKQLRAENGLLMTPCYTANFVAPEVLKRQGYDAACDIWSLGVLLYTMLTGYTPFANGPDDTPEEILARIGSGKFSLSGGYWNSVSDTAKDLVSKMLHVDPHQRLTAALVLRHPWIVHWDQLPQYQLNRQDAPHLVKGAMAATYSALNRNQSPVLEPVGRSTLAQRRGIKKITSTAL
Serine/threonine-protein kinase 35 (Homo sapiens), sequence (Q8TDR2 whole entry): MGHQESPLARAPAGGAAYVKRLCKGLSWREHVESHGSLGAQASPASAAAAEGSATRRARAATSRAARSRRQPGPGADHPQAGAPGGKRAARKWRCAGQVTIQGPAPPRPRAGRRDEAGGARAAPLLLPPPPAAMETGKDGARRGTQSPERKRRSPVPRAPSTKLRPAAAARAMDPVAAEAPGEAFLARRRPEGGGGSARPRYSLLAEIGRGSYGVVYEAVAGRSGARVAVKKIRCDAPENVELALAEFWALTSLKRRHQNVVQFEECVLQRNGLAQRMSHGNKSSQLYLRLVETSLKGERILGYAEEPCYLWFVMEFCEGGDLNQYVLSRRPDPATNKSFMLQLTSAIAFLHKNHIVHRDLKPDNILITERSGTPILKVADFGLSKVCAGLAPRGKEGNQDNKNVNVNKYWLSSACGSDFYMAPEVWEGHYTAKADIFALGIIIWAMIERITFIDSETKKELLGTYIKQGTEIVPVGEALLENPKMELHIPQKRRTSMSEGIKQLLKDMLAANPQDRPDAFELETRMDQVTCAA
Bone morphogenetic protein receptor type-1A, sequence (P36894 whole entry, the tested form may be a part): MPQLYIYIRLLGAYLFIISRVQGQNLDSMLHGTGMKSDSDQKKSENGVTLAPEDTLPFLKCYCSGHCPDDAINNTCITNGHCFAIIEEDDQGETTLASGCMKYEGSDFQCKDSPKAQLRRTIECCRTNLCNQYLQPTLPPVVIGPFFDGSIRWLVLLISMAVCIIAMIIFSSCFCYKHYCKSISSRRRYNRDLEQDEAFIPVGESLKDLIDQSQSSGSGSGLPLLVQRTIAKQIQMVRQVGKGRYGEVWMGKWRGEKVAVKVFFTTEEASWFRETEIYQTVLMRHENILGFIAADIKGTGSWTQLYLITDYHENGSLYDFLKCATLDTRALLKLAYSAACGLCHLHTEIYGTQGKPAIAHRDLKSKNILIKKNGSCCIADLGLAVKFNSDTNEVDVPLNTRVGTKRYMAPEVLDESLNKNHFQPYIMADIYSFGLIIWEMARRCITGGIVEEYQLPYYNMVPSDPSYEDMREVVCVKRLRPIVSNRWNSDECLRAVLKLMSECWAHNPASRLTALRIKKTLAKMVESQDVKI
Serine/threonine-protein kinase 38-like (Homo sapiens), sequence (Q9Y2H1 2-464 limits assumed): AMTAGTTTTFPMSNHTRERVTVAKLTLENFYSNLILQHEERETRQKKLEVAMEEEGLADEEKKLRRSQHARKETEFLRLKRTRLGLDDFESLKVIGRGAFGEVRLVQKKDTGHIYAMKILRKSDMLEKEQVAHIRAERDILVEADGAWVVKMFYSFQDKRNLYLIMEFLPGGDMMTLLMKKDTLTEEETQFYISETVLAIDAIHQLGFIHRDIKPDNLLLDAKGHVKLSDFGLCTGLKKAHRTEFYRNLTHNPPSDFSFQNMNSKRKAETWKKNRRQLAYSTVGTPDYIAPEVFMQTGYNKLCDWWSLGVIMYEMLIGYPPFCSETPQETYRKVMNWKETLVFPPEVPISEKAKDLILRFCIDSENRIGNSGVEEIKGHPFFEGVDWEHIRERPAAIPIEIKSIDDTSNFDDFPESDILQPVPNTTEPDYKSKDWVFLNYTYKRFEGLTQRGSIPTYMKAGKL
Phosphatidylinositol 4,5-bisphosphate 3-kinase catalytic subunit alpha isoform (Homo sapiens), P42336 [H1047Y], sequence (P42336 whole entry H1047Y, canonical isoform): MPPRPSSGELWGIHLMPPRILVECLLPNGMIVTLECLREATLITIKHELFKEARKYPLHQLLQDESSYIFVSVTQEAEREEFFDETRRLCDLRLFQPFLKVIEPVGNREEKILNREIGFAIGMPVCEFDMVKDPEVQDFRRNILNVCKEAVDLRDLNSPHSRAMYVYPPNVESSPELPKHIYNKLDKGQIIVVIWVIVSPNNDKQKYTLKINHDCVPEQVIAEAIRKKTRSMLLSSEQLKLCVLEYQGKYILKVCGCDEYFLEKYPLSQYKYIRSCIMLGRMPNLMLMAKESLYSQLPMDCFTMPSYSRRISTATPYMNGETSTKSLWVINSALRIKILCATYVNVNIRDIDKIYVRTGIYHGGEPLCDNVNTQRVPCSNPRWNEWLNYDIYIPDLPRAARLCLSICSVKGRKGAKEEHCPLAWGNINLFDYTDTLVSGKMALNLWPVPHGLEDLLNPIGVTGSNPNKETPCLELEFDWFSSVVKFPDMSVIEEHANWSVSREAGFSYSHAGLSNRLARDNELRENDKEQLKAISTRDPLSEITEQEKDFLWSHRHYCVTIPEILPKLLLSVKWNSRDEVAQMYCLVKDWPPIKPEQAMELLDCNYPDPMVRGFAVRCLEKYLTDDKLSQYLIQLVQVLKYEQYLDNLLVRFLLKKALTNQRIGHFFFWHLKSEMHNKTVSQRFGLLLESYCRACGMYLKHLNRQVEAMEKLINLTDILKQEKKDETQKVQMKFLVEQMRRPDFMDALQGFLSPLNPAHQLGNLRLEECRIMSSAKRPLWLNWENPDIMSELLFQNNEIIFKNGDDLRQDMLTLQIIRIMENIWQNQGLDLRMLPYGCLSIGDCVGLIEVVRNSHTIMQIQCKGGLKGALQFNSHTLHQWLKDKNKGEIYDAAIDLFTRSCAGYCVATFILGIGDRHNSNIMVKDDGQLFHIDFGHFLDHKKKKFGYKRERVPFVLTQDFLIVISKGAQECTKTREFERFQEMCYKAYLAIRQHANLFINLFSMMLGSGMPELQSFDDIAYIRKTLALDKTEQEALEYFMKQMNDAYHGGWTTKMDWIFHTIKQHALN
Epithelial discoidin domain-containing receptor 1 (Homo sapiens), sequence (Q08345 whole entry, the tested form may be a part): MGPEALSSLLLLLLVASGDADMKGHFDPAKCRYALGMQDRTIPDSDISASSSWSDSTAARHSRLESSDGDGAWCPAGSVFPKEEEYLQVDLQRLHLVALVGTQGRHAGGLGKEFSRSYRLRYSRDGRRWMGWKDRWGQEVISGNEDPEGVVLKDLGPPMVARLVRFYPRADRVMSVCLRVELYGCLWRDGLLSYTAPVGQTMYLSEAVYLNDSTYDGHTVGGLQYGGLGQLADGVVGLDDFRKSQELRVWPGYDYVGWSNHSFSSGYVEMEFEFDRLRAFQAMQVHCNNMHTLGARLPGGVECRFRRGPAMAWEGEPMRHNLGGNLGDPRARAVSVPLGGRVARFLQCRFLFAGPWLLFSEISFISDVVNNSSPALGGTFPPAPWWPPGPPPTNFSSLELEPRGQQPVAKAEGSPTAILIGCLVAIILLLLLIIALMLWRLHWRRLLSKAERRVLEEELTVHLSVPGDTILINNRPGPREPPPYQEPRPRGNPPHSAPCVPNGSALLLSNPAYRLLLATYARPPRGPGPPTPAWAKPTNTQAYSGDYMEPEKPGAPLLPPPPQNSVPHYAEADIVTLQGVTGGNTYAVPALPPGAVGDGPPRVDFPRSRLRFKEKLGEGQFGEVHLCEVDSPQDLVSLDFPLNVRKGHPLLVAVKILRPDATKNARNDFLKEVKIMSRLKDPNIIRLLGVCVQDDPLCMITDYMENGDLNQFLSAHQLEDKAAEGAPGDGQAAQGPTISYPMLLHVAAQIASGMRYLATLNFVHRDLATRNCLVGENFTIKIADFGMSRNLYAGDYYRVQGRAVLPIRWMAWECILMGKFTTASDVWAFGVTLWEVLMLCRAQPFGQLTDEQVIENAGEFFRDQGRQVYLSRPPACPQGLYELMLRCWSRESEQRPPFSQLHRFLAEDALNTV

COc1cc(Nc2nc(C)cc(-c3cnn4nc(OC)ccc34)n2)cc(C(F)(F)F)c1 was tested, and the % of control [1] was 100%.
O=C(NOC[C@H](O)CO)c1ccc(F)c(F)c1Nc1ccc(I)cc1F was tested, and the % of control [2] was 100% and the % of control [3] was 71%.
COc1cc(N(C)c2ccnc3ccc(C(F)(F)F)cc23)cc(OC)c1OC showed a % binding [4] of 90%.
Nc1cnc(N2CCc3cc(S(=O)(=O)Nc4c(F)cc(Cl)cc4F)cc(N4CCCC4=O)c32)nc1 [TP-020n] was tested, and the % of control [5] was 100%.
In the case of CN(C)C/C=C/C(=O)Nc1ccc(C(=O)N2CCCC(Nc3ncc(Cl)c(-c4c[nH]c5ccccc45)n3)C2)cc1 (centres undefined), the % of control [6] is reported as 100%.
With Cc1cc([C@@H](C)Nc2ccccc2C(=O)O)c2nc(N3CCOCC3)cc(=O)n2c1 [AZD-6482] the % of control [7] was 100%.
N#Cc1cccc(-c2c[nH]c3ncnc(N4CCOCC4)c23)c1 showed a % of control [8] of 96% and a % of control [9] of 87%.
CNC(=O)Nc1ccc(-c2nc(N3CC4CCC(C3)O4)c3cnn(C4CCC5(CC4)OCCO5)c3n2)cc1 showed a % of control [10] of 100% and a % of control [11] of 9.6%.
Cn1cc(-n2cnc3c(NCc4nc5cc(Cl)c(Cl)cc5[nH]4)nc(N4CCOCC4)nc32)cn1 gave a % of inhibition [12] of 13.4%.
Molecule C=CC(=O)Nc1cccc(C(=O)Nc2ccc(Nc3cc(-c4[nH]c(SC)nc4C)ccn3)cc2)c1 has a % of control ([13]; at 1 µM) of 80% and a % of control ([13]; at 5 µM) of 44%.
